Test results published in patent publication US11319324B2, “Pyrazolo-pyrrolo-pyrimidine-dione derivatives as P2X3 inhibitors” (Bayer Aktiengesellschaft, priority 2017, dated 2022).

Key:
Assay type in all cases: cell-based
human P2X3 receptor [1] = biological target: T1, human P2X3 receptor (Homo sapiens, UniProt P56373); assay: Intracellular calcium measurement, antagonist activity at human P2X3 receptors (hP2X3 1321N1), Fluo8; parameters: expressed in transfected cells; host or cells: human astrocytoma 1321N1 (1312N1 [sic]); settings: column 3); 1321N1 cells, human P2X3, Fluo8, agonist ATP at EC50
T1 sequence (P56373 1-397): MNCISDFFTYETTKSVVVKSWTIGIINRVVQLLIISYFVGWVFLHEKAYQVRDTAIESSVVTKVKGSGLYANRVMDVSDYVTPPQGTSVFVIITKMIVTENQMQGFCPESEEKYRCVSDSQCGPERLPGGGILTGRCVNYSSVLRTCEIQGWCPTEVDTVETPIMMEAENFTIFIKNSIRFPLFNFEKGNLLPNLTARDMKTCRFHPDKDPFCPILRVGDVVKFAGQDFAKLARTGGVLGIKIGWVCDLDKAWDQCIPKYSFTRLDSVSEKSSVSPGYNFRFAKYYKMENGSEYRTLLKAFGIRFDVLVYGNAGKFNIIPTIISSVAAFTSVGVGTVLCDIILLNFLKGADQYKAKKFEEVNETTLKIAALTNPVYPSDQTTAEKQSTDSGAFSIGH
Method: (§1) 3) And 4) Intracellular Calcium Measurement to Compare Antagonist Activity at Human P2X3 Receptors (hP2X3 1321N1) and at Human P2X2/3 Receptors (hP2X23 1321N1)
(§2) The comparison of antagonistic activity at the P2X3 versus the P2X2/3 receptor of the compounds of the invention were performed by use of recombinant cell lines. These cell lines derived originally from the human astrocytoma cell line […] (Macintyre E H, Pontén J, Vatter A E. Acta Pathol Microbiol Scand A. 1972; 80(2):267-83). The cell lines are stably transfected with the human P2X3 receptor forming homotrimeric P2X3 receptors or are co-transfected with P2X2 and P2X3 forming heterotrimeric P2X2/3 receptors. Stimulation of the receptors with the agonist ATP leads to a conformational change of the receptors and influx of extracellular calcium ions through the open ion channel. The cytoplasmatic calcium transient is detected via the calcium sensitive dye Fluo8. The strength of Fluo8 fluorescence signal corresponds to the level of receptor activation. An inhibitor would decrease the signal depending on its potency and concentration. Fluorescence was measured by use of a suitable fluorescence reader.
(§3) On the day before the assay, the cells were plated in culture medium (DMEM high glucose, 10% FCS, 1% MEM non-essential amino acids, 4 mM Glutamax) in 384-well poly-D-lysine coated microtiter plates and kept in a cell incubator (96% humidity, 5% v/v CO2, 37° C.). On the day of the assay medium was exchanged by Fluo8 containing buffer and incubated for 60 minutes. Test compounds were added at various concentrations and plates were incubated for 10 minutes. In the fluorescence reader a 3 seconds baseline measurement was performed and the agonist ATP was applied at EC50 concentration of the respective receptor during constant fluorescence measurement for 120 seconds.

human P2X3 receptor [2] = biological target: T1, human P2X3 receptor; assay: Intracellular calcium measurement to assess antagonist activity at human P2X3 receptors (hP2X3 CHO), photina luminescence; parameters: expressed in transfected cells; host or cells: Chinese hamster ovary (CHO) cells; settings: column 2), CHO cells, agonist α,β-methylene-ATP at EC50
Method: 2) Intracellular Calcium Measurement to Assess Antagonist Activity at Human P2X3 Receptors (hP2X3 CHO)
The determination of antagonistic activity at the P2X3 receptor of the compounds of the invention was performed by use of a recombinant cell line. This cell line derives originally from the Chinese hamster ovary (CHO) cell line (Tjio J. H.; Puck T. T., 1958, J. Exp. Med. 108: 259-271). The cell line is stably transfected with the human P2X3 receptor and a calcium-sensitive photoprotein, mitochondrial photina, which, after reconstitution with the cofactor coelenterazine, emits light in dependence of calcium binding [Bovolenta S, Foti M, Lohmer S, Corazza S., J Biomol Screen. 2007 August; 12(5):694-704]. The strength of the photina luminescence signal corresponds to the level of receptor activation upon agonist binding. An inhibitor would decrease the signal depending on its potency and concentration. Bioluminescence was detected using a suitable luminometer [Milligan G, Marshall F, Rees S, Trends in Pharmacological Sciences 17,235-237 (1996)].
On the day before the assay, the cells were plated out in culture medium (DMEM/F12 (PAN, P04-41451), 10% FCS) in 384-well microtiter plates and kept in a cell incubator (96% humidity, 5% v/v CO2, […]). On the day of the assay medium was replaced by 2 mM Ca-tyrode buffer containing 5 μg/ml coelenterazine. Plates were incubated for 3 hours at 37° C. (96% humidity, 5% v/v CO2). […] The resulting light signal was measured immediately in the luminometer.

human P2X2/3 receptors = biological target: T2, human P2X2/3 receptors (Homo sapiens, UniProt P56373+Q9UBL9); assay: Intracellular calcium measurement, antagonist activity at human P2X2/3 receptors (hP2X23 1321N1), Fluo8; settings: for IC50: column 4); 1321N1 cells, human P2X2/3, Fluo8, agonist ATP at EC50; read-out: 4) hP2X2/3 IC50 [nM] (1321N1); for hP2X23/hP2X3* Selectivity (1321N1): ratio of column 4) hP2X2/3 to column 3) hP2X3, 1321N1
T2 construct: expressed in transfected cells; host or cells: human astrocytoma 1321N1 (1312N1 [sic])
T2 sequence (P56373 1-397): T1 sequence (P56373 1-397)
T2 sequence (Q9UBL9 1-471): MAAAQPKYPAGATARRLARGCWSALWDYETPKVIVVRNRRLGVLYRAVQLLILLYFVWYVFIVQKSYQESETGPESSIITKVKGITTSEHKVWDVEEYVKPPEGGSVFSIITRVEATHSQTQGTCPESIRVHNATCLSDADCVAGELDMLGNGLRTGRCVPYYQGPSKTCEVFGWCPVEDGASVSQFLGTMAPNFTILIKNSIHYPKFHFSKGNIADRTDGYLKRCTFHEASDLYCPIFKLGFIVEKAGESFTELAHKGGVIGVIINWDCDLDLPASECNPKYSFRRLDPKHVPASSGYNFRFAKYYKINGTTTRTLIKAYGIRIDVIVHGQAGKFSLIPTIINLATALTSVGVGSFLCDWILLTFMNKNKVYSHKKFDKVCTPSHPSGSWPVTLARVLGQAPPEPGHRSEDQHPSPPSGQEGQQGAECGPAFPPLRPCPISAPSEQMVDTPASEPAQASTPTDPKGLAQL
Method: as §1, §2, §3

| Compound | IC50 (human P2X3 receptor [1]) [nM] | IC50 (human P2X3 receptor [2]) [nM] | IC50 (human P2X2/3 receptors) [nM] | hP2X23/hP2X3* Selectivity (1321N1) (human P2X2/3 receptors) |
| --- | --- | --- | --- | --- |
| CC(C)N1Cc2c(n(CC(=O)Nc3ccc(F)cn3)c3cc(C(=O)NC(C)(C)C)nn3c2=O)C1=O [Example 186] | 1850 | 124 | > 32000 | >17 |
| COC[C@H](C)N1Cc2c(n(CC(=O)Nc3ccc(F)cn3)c3cc(C(=O)N4CCOCC4)nn3c2=O)C1=O [Example 191] | 27 | 29 | > 32000 | >1199 |
| CC(C)N1Cc2c(n(CC(=O)Nc3ccc(F)cn3)c3cc(C4CCNC4)nn3c2=O)C1=O.Cl (racemic) [Example 235, 2-{5,8-dioxo-6-(propan-2-yl)-2-[(±)-pyrrolidin-3-yl]-5,6,7,8-tetrahydro-4H-pyrazolo[1,5-a]pyrrolo[3,4-d]pyrimidin-4-yl}-N-(5-fluoropyridin-2-yl)acetamide hydrochloride (1:1)] | 340 | 155 | > 66000 | >194 |
| CCc1cc2n(CC(=O)Nc3ccc(F)cn3)c3c(c(=O)n2n1)CN(C1CCN(C(=O)NC(C)C)C1)C3=O (racemic) [Example 274, (±)-3-[2-ethyl-4-{2-[(5-fluoropyridin-2-yl)amino]-2-oxoethyl}-5,8-dioxo-5,8-dihydro-4H-pyrazolo[1,5-a]pyrrolo[3,4-d]pyrimidin-6(7H)-yl]-N-(propan-2-yl)pyrrolidine-1-carboxamide] | 125 | 187 | > 32000 | >256 |
| CC(C)N1Cc2c(n(CC(=O)Nc3ccc(F)cn3)c3cc(C4CCN(C(=O)C(F)F)CC4)nn3c2=O)C1=O [Example 264] | 17 | 36 | 7400 | 427 |
| CC(C)N1Cc2c(n(CC(=O)Nc3ccc(F)cn3)c3cc(C4CC4)nn3c2=O)C1=O [Example 56] | 185 | 73 | 9950 | 54 |
| CC(C)N1Cc2c(n(CC(=O)Nc3ccc(F)cn3)c3cc(C(=O)N4CCCCC4)nn3c2=O)C1=O [Example 183] | 20 | 23 | 2300 | 118 |
| CC(C)N1Cc2c(n(CC(=O)Nc3ccc(F)cn3)c3cc(CC4CCOCC4)nn3c2=O)C1=O [Example 96] | 26 | 20 | 8800 | 345 |
| COCCN1Cc2c(n(CC(=O)Nc3ccc(F)cn3)c3cc(C4CCOCC4)nn3c2=O)C1=O [Example 97] | 47 | 66 | 9750 | 207 |
| COCCNc1cc2n(CC(=O)Nc3ccc(F)cn3)c3c(c(=O)n2n1)CN(C(C)C)C3=O [Example 169] | 120 | 108 | > 20700 | >173 |
| CCc1cc2n(CC(=O)Nc3ccc(F)cn3)c3c(c(=O)n2n1)CN(C[C@H]1CN(C2CC2)CCO1)C3=O [Example 258] | 52 | 66 | 1080 | 21 |
| Cc1cc(C)c(-c2cc3n(CC(=O)Nc4ccc(F)cn4)c4c(c(=O)n3n2)CN(C(C)C)C4=O)cn1 [Example 156] | 4 | 12 | 295 | 78 |
| CC(C)N1Cc2c(n(CC(=O)Nc3ccc(F)cn3)c3cc(C(=O)NC4CC4)nn3c2=O)C1=O [Example 79] | 61 | 94 | 4800 | 79 |
| COC[C@H](C)N1Cc2c(n(CC(=O)Nc3ccc(F)cn3)c3cc(-c4ccc(C)cn4)nn3c2=O)C1=O [Example 162] | – | 6 | 1200 | – |
| CCc1cc2n(CC(=O)Nc3ccc(F)cn3)c3c(c(=O)n2n1)CN(C(C)(C)COCc1ccccc1)C3=O [Example 120, 2-{6-[1-(benzyloxy)-2-methylpropan-2-yl]-2-ethyl-5,8-dioxo-5,6,7,8-tetrahydro-4H-pyrazolo[1,5-a]pyrrolo[3,4-d]pyrimidin-4-yl}-N-(5-fluoropyridin-2-yl)acetamide] | – | 5 | 345 | – |

The remaining compounds from weak to strong by IC50 (human P2X3 receptor [2]), led by results:

| IC50 (human P2X3 receptor [1]) [nM] | IC50 (human P2X3 receptor [2]) [nM] | IC50 (human P2X2/3 receptors) [nM] | hP2X23/hP2X3* Selectivity (1321N1) (human P2X2/3 receptors) | Compound |
| --- | --- | --- | --- | --- |
| 280 | 330 | 7900 | 28 | CC(C)N1Cc2c(n(CC(=O)Nc3ccc(F)cn3)c3cc(C4CNC4)nn3c2=O)C1=O.Cl [Example 244] |
| 650 | 220 | > 32000 | >49 | CCc1cc2n(CC(=O)Nc3ccc(F)cn3)c3c(c(=O)n2n1)CN(CC1CCCN1)C3=O.Cl (stereo not shown) [Example 239] |
| 20 | 52 | 4850 | 243 | COCCN1Cc2c(n(CC(=O)Nc3ccc(F)cn3)c3cc(C4CC4)nn3c2=O)C1=O [Example 100] |
| 34 | 19 | 9800 | 291 | COC[C@H](C)N1Cc2c(n(CC(=O)Nc3ccc(F)cn3)c3cc(C(=O)NCC(F)F)nn3c2=O)C1=O [Example 197] |
| 11 | 17 | 2550 | 232 | CCc1cc2n(CC(=O)Nc3ccc(F)cn3)c3c(c(=O)n2n1)CN(Cc1ccc(F)cc1)C3=O [Example 112] |
| – | 13 | 1460 | – | CC(C)N1Cc2c(n(CC(=O)Nc3ccc(F)cn3)c3cc(-c4ccc(F)cn4)nn3c2=O)C1=O [Example 165] |
| 16 | 12 | 2250 | 139 | CC(C)N1Cc2c(n(CC(=O)Nc3ccc(F)cn3)c3cc(-c4ccccc4)nn3c2=O)C1=O [Example 150, 2-[5,8-dioxo-2-phenyl-6-(propan-2-yl)-5,6,7,8-tetrahydro-4H-pyrazolo[1,5-a]pyrrolo[3,4-d]pyrimidin-4-yl]-N-(5-fluoropyridin-2-yl)acetamide] |
